Results from US11707451B2, “Pharmaceutical composition for modified release” (ASTELLAS PHARMA INC., priority 2010, dated 2023).

Assay: Pharmacokinetics (PK) test of immediate release formulation (capsule formulation) in human
Format: in vivo
Settings: healthy subjects; immediate release capsules, 0.1 to 340 mg; FIG. 11
Method: The immediate release formulations (capsule formulations) containing 0.1 mg, 1 mg, 5 mg, 20 mg, and 80 mg of the compound A were used in combinations as needed so that the dose of compound A became 0.1 mg, 1 mg, 3 mg, 10 mg, 30 mg, 100 mg, 160 mg, 240 mg, and 340 mg.

SMILES: Nc1nc(CC(=O)Nc2ccc(CCNC[C@H](O)c3ccccc3)cc2)cs1 [compound A, (R)-2-(2-aminothiazol-4-yl)-4′-[2-[(2-hydroxy-2-phenylethyl)amino]ethyl]acetic acid anilide]
- relation between maximum plasma concentration (Cmax) and increase in heart rate from the base line: positive correlation
